According to PubChem BioAssay (NCI):
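Five concentrations, 48 hours, 96-well plates. TGI: concentration producing complete growth inhibition.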

How the values were obtained:
Assay in all cases: DTP human tumour cell line panel, 48 h
UO-31 renal = test system: UO-31 renal
OVCAR-8 ovarian = test system: OVCAR-8 ovarian
TK-10 renal = test system: TK-10 renal
COLO 205 colon = test system: COLO 205 colon
RXF 393 renal = test system: RXF 393 renal
NCI-H460 lung = test system: NCI-H460 lung
M19-MEL melanoma = test system: M19-MEL melanoma
SNB-75 CNS = test system: SNB-75 CNS
SK-OV-3 ovarian = test system: SK-OV-3 ovarian
U251 CNS = test system: U251 CNS
CAKI-1 renal = test system: CAKI-1 renal
IGROV1 ovarian = test system: IGROV1 ovarian
CCRF-CEM leukemia = test system: CCRF-CEM leukemia
HCT-15 colon = test system: HCT-15 colon
HOP-62 NSCLC = test system: HOP-62 NSCLC
XF 498 CNS = test system: XF 498 CNS
SF-295 CNS = test system: SF-295 CNS
SW-620 colon = test system: SW-620 colon
OVCAR-5 ovarian = test system: OVCAR-5 ovarian
K-562 leukemia = test system: K-562 leukemia
KM20L2 colon = test system: KM20L2 colon
SK-MEL-28 melanoma = test system: SK-MEL-28 melanoma
SF-268 CNS = test system: SF-268 CNS
ACHN renal = test system: ACHN renal
DMS 273 small cell lung = test system: DMS 273 small cell lung
786-0 renal = test system: 786-0 renal
NCI-H522 lung = test system: NCI-H522 lung
A498 renal = test system: A498 renal
HOP-92 NSCLC = test system: HOP-92 NSCLC
HCT-116 colon = test system: HCT-116 colon
SNB-19 CNS = test system: SNB-19 CNS
EKVX NSCLC = test system: EKVX NSCLC
DLD-1 colon = test system: DLD-1 colon
MOLT-4 leukemia = test system: MOLT-4 leukemia
SK-MEL-5 melanoma = test system: SK-MEL-5 melanoma
OVCAR-4 ovarian = test system: OVCAR-4 ovarian
HOP-18 NSCLC = test system: HOP-18 NSCLC
RXF-631 renal = test system: RXF-631 renal
HL-60(TB) leukemia = test system: HL-60(TB) leukemia
UACC-257 melanoma = test system: UACC-257 melanoma
LXFL 529 NSCLC = test system: LXFL 529 NSCLC
RPMI-8226 leukemia = test system: RPMI-8226 leukemia
LOX IMVI melanoma = test system: LOX IMVI melanoma
A549 NSCLC = test system: A549 NSCLC
KM12 colon = test system: KM12 colon
SNB-78 CNS = test system: SNB-78 CNS
SN12C renal = test system: SN12C renal
DMS 114 small cell lung = test system: DMS 114 small cell lung
HCC-2998 colon = test system: HCC-2998 colon
OVCAR-3 ovarian = test system: OVCAR-3 ovarian
SK-MEL-2 melanoma = test system: SK-MEL-2 melanoma
MALME-3M melanoma = test system: MALME-3M melanoma
SF-539 CNS = test system: SF-539 CNS
M14 melanoma = test system: M14 melanoma
UACC-62 melanoma = test system: UACC-62 melanoma
NCI-H23 lung = test system: NCI-H23 lung
NCI-H226 lung = test system: NCI-H226 lung
HT29 colon = test system: HT29 colon

Measured: TGI

CCc1cccc(C)c1NC(=O)NS(=O)(=O)c1ccc(C)cc1
not listed: NCI-H226 lung | HT29 colon
> 100 µM: all other assays above

COc1cccc(C2C(C(=O)Nc3cc(=O)n(C)c(=O)n3C)=C(C)NC(C)=C2C(=O)Nc2cc(=O)n(C)c(=O)n2C)c1O
not listed: HCT-15 colon | DMS 273 small cell lung | HCT-116 colon | HOP-18 NSCLC | UACC-62 melanoma
> 100 µM: all other assays above
